Laboratory results taken from patent publication US20230027361A1, “METTL3 MODULATORS” (priority 2019, published 2023).
Like-named read-outs stand apart in the source and are kept apart here.

Key:
PRMT5-MEP50 = PRMT5-MEP50 (Homo sapiens, UniProt O14744); assay: PRMT5 Assay (PRMT5 biochemical assay)
Outline: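 Radiometric methyltransferase read-out: after 60 min reaction, excess unlabelled SAM (15 μM) stops turnover and biotinylated H4 peptide (100 nM) carrying 3H-methyl from 250 nM 3H-SAM is captured on streptavidin flashplates (2 h, 25° C) for scintillation counting. Enzyme, 2.5 nM PRMT5-MEP50, was preincubated 5 min with compound in pH 8.0 Tris buffer with DTT and Tween.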

METTL1/WDR4 = METTL1/WDR4 (Homo sapiens, UniProt Q9UBP6); assay: METTL1 Assay (METTL1 biochemical assay)
Outline: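 Radiometric methyltransfer by METTL1/WDR4 (6.25 nM f.c., 5 min preincubation) at ambient temperature in HEPES pH 7.5, KCl, MgCl2, DTT; started with 25 nM 3′-biotinylated RNA and 60 nM 3H-SAM, run 20 min, quenched with 15 μM cold SAM. Product captured on streptavidin flashplates (2 h, 25° C), counted by scintillation.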

METTL16 = molecular target: T1, METTL16 (Homo sapiens, UniProt Q86W50); assay: METTL16 Assay (METTL16 biochemical assay); conditions: read-out: METTL16 IC50
T1 sequence (Q86W50 1-562): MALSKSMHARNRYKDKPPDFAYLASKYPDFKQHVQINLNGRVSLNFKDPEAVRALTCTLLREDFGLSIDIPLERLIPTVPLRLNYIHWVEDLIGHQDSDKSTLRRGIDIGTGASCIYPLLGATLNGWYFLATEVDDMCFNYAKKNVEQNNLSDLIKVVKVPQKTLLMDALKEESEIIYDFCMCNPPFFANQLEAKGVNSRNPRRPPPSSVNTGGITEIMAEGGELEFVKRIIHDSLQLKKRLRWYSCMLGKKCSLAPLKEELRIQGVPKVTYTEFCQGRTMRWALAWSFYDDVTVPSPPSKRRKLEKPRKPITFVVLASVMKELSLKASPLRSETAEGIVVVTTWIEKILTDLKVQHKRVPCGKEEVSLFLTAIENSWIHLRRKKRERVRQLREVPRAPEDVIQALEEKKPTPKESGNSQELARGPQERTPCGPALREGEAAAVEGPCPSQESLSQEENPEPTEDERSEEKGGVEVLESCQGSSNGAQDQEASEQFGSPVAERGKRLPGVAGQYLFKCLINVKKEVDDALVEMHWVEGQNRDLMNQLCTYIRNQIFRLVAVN
Outline: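 Radiometric methyltransferase reaction at ambient temperature in 20 mM HEPES pH 7.5, 50 mM KCl, 1 mM DTT, with 100 nM enzyme preincubated 5 min with compound. It was started with 50 nM 3′-biotinylated RNA, 200 nM 3H-SAM plus 800 nM cold SAM, run 20 min, then quenched with excess cold SAM. Product was captured on streptavidin flashplates and scintillation-counted.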

[1] = PRMT5 biochemical assay; read-out: PRMT5 IC50
[2] = read-out: METTL1 IC50, METTL1 biochemical assay
[3] = read-out: PRMT5 IC50; PRMT5 biochemical assay

METTL1/WDR4, sequence (Q9UBP6 whole entry, species assumed): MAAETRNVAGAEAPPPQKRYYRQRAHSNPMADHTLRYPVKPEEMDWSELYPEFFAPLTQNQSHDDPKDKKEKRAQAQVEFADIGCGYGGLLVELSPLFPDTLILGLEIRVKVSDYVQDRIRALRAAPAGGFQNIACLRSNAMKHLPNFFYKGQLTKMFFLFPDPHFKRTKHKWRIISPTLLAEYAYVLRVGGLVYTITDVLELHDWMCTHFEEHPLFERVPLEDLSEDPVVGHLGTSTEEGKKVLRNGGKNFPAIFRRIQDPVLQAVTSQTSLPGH
METTL1/WDR4, sequence (P57081 whole entry partner, species assumed): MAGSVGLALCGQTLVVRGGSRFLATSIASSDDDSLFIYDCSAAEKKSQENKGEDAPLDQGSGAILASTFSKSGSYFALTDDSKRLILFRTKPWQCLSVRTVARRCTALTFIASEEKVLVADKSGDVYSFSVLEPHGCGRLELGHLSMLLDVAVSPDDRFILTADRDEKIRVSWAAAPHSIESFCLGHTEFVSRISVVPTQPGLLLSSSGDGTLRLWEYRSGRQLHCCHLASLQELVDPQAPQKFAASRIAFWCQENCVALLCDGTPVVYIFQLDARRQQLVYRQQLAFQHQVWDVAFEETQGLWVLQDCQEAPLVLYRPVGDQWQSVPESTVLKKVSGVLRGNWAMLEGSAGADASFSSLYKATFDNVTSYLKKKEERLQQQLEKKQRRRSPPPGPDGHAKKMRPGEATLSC
PRMT5-MEP50, sequence (O14744 whole entry): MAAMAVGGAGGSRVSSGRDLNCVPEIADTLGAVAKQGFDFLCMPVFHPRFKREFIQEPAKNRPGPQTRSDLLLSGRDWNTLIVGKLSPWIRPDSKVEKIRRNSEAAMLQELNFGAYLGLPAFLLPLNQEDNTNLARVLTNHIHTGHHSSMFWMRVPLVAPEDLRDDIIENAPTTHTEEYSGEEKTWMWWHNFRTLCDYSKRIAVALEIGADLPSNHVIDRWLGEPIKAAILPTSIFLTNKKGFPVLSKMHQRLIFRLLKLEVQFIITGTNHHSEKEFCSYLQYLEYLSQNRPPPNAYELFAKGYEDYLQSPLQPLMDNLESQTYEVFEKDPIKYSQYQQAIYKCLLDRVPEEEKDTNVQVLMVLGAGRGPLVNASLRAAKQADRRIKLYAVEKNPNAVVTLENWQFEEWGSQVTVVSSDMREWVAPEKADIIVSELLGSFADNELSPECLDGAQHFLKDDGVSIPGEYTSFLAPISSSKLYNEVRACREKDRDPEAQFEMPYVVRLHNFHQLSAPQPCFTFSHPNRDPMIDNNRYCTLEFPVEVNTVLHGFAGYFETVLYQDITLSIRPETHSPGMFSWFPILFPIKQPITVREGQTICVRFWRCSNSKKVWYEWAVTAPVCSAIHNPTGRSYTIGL
PRMT5-MEP50, sequence (Q9BQA1 whole entry partner): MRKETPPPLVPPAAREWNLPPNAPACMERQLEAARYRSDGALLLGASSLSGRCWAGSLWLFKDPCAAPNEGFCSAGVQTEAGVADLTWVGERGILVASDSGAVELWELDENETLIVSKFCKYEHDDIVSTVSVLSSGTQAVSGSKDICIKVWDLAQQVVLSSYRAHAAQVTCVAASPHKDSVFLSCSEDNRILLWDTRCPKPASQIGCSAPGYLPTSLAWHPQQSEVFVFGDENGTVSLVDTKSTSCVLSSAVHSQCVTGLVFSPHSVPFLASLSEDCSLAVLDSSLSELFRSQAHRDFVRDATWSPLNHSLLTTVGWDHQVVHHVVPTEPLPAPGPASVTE

Q: For CNc1ccc2ccc(CC[C@H]3O[C@@H](n4cc(C5CCCC5)c5c(N)ncnc54)[C@H](O)[C@@H]3O)cc2n1 [I-39], which IC50 (PRMT5-MEP50; [1]) is on record?
A: Its IC50 is less than 10 nM.

Q: What about the IC50 (METTL1/WDR4; [2]) of the same molecule?
A: Its IC50 is greater than 1000 nM.

Q: What about the IC50 (METTL16) of the same molecule?
A: The IC50 was greater than 1000 nM.

Q: What does the source list for CNc1ccc2ccc(OC[C@H]3O[C@@H](n4cc(CC5CCCC5)c5c(N)ncnc54)[C@H](O)[C@@H]3O)cc2n1 [I-23]?
A: IC50 (PRMT5-MEP50; [1]): 10 to 100 nM; IC50 (METTL1/WDR4; [2]): > 1000 nM; IC50 (METTL16): > 1000 nM

Q: With CNc1ccc2ccc(OC[C@H]3O[C@@H](n4cc(C5CCCC5)c5c(N)ncnc54)[C@H](O)[C@@H]3O)cc2n1 [I-33, (2R,3R,4S,5R)-2-(4-amino-5-cyclopentyl-7H-pyrrolo[2,3-d]pyrimidin-7-yl)-5-(((2-(methylamino)quinolin-7-yl)oxy)methyl)tetrahydrofuran-3,4-diol] as the molecule, how does the IC50 (PRMT5-MEP50; [1]) read?
A: The IC50 was less than 10 nM.

Q: What about the IC50 (METTL1/WDR4) of the same molecule?
A: Its IC50 is greater than 1000 nM.

Q: And the IC50 (METTL16)?
A: Its IC50 is greater than 1000 nM.

Q: What does the source list for CNc1ccc2ccc(OC[C@H]3O[C@@H](n4cc(-c5ccn(C)n5)c5c(N)ncnc54)[C@@H](F)[C@@H]3O)cc2n1 [I-12]?
A: IC50 (PRMT5-MEP50; [3]): 10 to 100 nM; IC50 (METTL16): > 1000 nM

Q: How did the IC50 (PRMT5-MEP50; [1]) turn out when CNc1ccc2ccc(OC[C@H]3O[C@@H](n4cc(Br)c5c(N)ncnc54)[C@H](O)[C@@H]3O)cc2n1 [I-73] was run?
A: The IC50 was less than 10 nM.

Q: And the IC50 (METTL1/WDR4; [2])?
A: The IC50 was greater than 1000 nM.

Q: What about the IC50 (METTL16) of the same molecule?
A: Its IC50 is greater than 1000 nM.

Q: Which IC50 (PRMT5-MEP50; [3]) does the source give for CCNc1ccc2ccc(OC[C@H]3O[C@@H](n4cc(-c5cn(C)cn5)c5c(N)ncnc54)[C@@H](F)[C@@H]3O)cc2n1 [I-10] here?
A: Its IC50 is 100 to 1000 nM.

Q: And the IC50 (METTL16)?
A: The IC50 was greater than 1000 nM.

Q: Which results are given for CNc1ccc2ccc(OC[C@H]3O[C@@H](n4cc(Cl)c5c(N)ncnc54)[C@H](O)[C@@H]3O)cc2n1 [I-70]?
A: IC50 (PRMT5-MEP50; [1]): < 10 nM; IC50 (METTL1/WDR4; [2]): > 1000 nM; IC50 (METTL16): > 1000 nM

Q: With CNc1ccc2ccc(OC[C@H]3O[C@@H](n4cc(C5CC5)c5c(N)ncnc54)[C@@H](F)[C@@H]3O)cc2n1 [I-29] as the molecule, how does the IC50 (PRMT5-MEP50; [1]) read?
A: The IC50 was 100 to 1000 nM.

Q: And the IC50 (METTL1/WDR4; [2])?
A: Its IC50 is greater than 1000 nM.

Q: And the IC50 (METTL16)?
A: Its IC50 is greater than 1000 nM.

Q: How did the IC50 (PRMT5-MEP50; [1]) turn out when CNc1ccc2ccc(OC[C@H]3O[C@@H](n4cc(CC5CC5)c5c(N)ncnc54)[C@@H](F)[C@@H]3O)cc2n1 [I-36] was run?
A: The IC50 was 100 to 1000 nM.

Q: And the IC50 (METTL1/WDR4; [2])?
A: The IC50 was greater than 1000 nM.

Q: What about the IC50 (METTL16) of the same molecule?
A: Its IC50 is greater than 1000 nM.

Q: Which IC50 (PRMT5-MEP50; [3]) does the source give for Cn1ccc(-c2cn([C@@H]3O[C@H](COc4ccc5ccc(N6CCC6)nc5c4)[C@@H](O)[C@@H]3F)c3ncnc(N)c23)n1 [I-149] here?
A: The IC50 was greater than 1000 nM.

Q: What about the IC50 (METTL1/WDR4; METTL1 biochemical assay, read-out: METTL1 IC50) of the same molecule?
A: Its IC50 is greater than 1000 nM.

Q: And the IC50 (METTL16)?
A: Its IC50 is greater than 1000 nM.
